26 compounds from ChEMBL document CHEMBL6127114, “Discovery of Bis-imidazolecarboxamide Derivatives as Novel, Potent, and Selective TNIK Inhibitors for the Treatment of Idiopathic Pulmonary Fibrosis” (J Med Chem, 2024) can be followed below.

Data set [1] deals with T1, TRAF2 and NCK-interacting protein kinase (Homo sapiens, UniProt Q9UKE5).
The subject of data set [2] is LX-2. The data set is described as follows: cells. Conditions: Homo sapiens.
A short description of data set [3]: in vitro. Conditions: human, lx-2.
Data set [4] deals with LX-2. The data set is described as follows: cells. Conditions: Homo sapiens. The source holds these as a separate data set.
Data set [5] is described as follows: physchem. Conditions: buffer, pH 7.4.
The nature of data set [6]: Metabolic stability in mouse liver microsomes assessed as intrinsic clearance preincubated for 60 mins followed by NADPH addition and measured after 5 to 60 mins by LC-MS/MS analysis. The data set is classed as ADME, Microsome. Conditions: time 65-120 min, read-out: CLH. A general note: Microsomes from liver hold many membrane-bound enzymes, among them those of drug oxidation.

Data set [7] can be described thus: Metabolic stability in human liver microsomes assessed as intrinsic clearance preincubated for 60 mins followed by NADPH addition and measured after 5 to 60 mins by LC-MS/MS analysis. Type of data set: ADME, Microsome. Conditions: time 65-120 min, read-out: CLH.
Data set [8] is described as follows: Apparent permeability in human Caco-2 cells. Type of data set: ADME, cell-based.
Data set [9] deals with T2, Muscarinic acetylcholine receptor M1 (Homo sapiens, UniProt P11229).
T2 sequence (P11229 whole entry): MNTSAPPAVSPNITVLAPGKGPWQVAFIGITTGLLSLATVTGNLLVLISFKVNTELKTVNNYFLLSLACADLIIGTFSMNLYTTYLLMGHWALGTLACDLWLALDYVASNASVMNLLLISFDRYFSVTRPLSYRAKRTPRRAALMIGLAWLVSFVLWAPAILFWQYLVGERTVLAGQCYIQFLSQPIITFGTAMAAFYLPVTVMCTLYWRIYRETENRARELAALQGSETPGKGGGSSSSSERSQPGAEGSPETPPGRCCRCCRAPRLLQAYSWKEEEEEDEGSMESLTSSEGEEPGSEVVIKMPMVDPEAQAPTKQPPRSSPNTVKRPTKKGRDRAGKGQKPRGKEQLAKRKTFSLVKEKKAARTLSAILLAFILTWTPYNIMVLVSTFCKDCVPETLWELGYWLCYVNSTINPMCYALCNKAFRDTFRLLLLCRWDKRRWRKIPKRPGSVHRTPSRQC
Put plainly: Inhibition of human CHRM1 by Eurofins DiscoverX method.

Data set [10] relates to Mus musculus. The data set is described as follows: Anti-hepatic fibrosis activity in CCL4-induced male C57BL6/J mouse hepatic fibrosis model assessed as change in body weight at 3 mg/kg, po meausred after 2 weeks (reference value: -1.8%). Type of data set: functional.
Data set [11] is described as follows: Inhibition of fibronectin-1 protein expression in human Primary bronchial epithelial cell. Type of data set: functional, cell-based.
Data set [12] concerns Mus musculus. Put plainly: Anti-hepatic fibrosis activity in CCL4-induced male C57BL6/J mouse hepatic fibrosis model assessed as change in body weight at 10 mg/kg, po meausred after 2 weeks (reference value: -1.8%). The data set is classed as functional.
Data set [13] addresses T1, TRAF2 and NCK-interacting protein kinase. The source holds these as a separate data set.

Molecules are shown by their SMILES. Values after ≈ are worked out from the molar mass of the structure shown.

T1 sequence (Q9UKE5 whole entry): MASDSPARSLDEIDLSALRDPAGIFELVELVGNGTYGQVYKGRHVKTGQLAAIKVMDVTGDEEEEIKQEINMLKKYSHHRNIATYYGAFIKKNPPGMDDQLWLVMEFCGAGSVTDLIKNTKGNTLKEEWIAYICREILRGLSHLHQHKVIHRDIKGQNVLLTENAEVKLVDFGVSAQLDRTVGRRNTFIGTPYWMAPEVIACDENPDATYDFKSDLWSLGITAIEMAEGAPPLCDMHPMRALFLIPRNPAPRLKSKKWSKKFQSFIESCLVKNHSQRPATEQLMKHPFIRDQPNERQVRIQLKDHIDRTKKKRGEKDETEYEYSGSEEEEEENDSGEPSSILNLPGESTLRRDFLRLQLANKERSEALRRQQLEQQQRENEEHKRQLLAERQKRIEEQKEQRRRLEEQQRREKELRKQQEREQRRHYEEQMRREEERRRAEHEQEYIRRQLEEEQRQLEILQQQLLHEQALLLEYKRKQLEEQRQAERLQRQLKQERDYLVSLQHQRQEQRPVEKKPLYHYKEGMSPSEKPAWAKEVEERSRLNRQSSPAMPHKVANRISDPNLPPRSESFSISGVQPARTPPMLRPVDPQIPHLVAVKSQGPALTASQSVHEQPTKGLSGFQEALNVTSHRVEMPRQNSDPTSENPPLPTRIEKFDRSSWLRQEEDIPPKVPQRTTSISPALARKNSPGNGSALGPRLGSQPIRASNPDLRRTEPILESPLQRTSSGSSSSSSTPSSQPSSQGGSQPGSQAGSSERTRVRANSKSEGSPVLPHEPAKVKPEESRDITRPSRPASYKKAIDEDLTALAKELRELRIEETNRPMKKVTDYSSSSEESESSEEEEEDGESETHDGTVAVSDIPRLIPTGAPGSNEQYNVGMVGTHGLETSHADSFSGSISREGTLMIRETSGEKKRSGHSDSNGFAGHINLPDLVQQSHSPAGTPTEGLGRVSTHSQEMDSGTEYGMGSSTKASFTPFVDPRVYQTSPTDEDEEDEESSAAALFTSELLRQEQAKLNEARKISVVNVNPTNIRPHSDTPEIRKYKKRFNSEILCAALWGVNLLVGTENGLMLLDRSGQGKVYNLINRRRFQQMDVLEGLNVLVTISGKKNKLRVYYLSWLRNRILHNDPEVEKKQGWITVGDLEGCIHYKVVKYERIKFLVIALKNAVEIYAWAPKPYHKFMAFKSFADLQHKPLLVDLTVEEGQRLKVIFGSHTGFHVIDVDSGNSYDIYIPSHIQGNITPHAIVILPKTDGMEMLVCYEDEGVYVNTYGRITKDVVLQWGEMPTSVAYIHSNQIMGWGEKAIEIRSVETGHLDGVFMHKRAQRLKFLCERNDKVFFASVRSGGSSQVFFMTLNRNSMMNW

The term IC50 denotes the midpoint of a concentration-inhibition curve. Higher therefore signals a need for much substance. In turn, `CC(C)n1cnc(-c2ccc(F)c(F)c2)c1-c1nc(C(=O)Nc2ccc(N3CCN(C)CC3)cc2)c[nH]1` displayed a half-maximal inhibitory concentration (IC50) in [1] of 0.051 µM. This lies in the double-digit nanomolar range.

Consider `CC(C)n1cnc(-c2ccc(F)cc2)c1-c1nc(C(=O)Nc2ccc(CCO)cc2)c[nH]1`, for which the values for the IC50 in data set [2], in data set [1] and in data set [4] were 0.306 µM, 0.0095 µM and 0.264 µM, respectively. This compound also returned an IC50 at 72 h in data set [3] of over 100 µM.

With `CC(C)n1cnc(-c2ccc(F)cc2)c1-c1nc(C(=O)Nc2ccc(N3CCN(CCO)CC3)cc2)c[nH]1`, the figures for the half-inhibitory concentration (IC50) in data set [2], in [1] and in data set [4] were 0.123 µM, 0.0211 µM and 0.162 µM, respectively. Besides, the half-inhibitory concentration (IC50) at 72 h in data set [3] was over 100 µM.

For the compound `CC(=O)N1CCN(c2ccc(NC(=O)c3c[nH]c(-c4c(-c5ccc(F)cc5)ncn4C(C)C)n3)cc2)CC1`, the IC50 in data set [2] stood at 0.144 µM; in [1], 0.006 µM; in [4] it was 0.572 µM. In addition, the half-inhibitory concentration (IC50) at 72 h in [3] is over 100 µM.

In [1], `CC(C)n1cnc(-c2ccc(F)cc2)c1-c1nc(C(=O)Nc2ccc(N3CCN(C(N)=O)CC3)cc2)c[nH]1` gave an IC50 of 0.199 µM.

Consider `CC(C)n1cnc(-c2ccc(F)cc2)c1-c1nc(C(=O)Nc2ccc(N(CCO)CCO)cc2)c[nH]1`, for which the IC50 in data set [2] came out at 0.839 µM; in [1] it was 0.0791 µM; in data set [4], 0.904 µM. The same compound came in with an IC50 at 72 h in [3] of over 100 µM.

The term solubility (kinetic) denotes solubility judged after dilution from a stock solution rather than from solid. In data set [5], `CC(C)n1cnc(-c2ccc(F)cc2)c1-c1ccc(C(=O)Nc2ccc(CCO)cc2)o1` returned a kinetic solubility at 24 h of under 2 µM. Besides, the microsomal CLint in [6] and in data set [7] was over 150 µL/min/mg in each case. The compound also returned a 50% inhibitory concentration (IC50) in data set [1] of 0.0402 µM.

For `CC(C)n1cnc(-c2ccc(F)cc2)c1-c1nc(C(=O)Nc2ccc(N3CCNCC3)cc2)c[nH]1`, the half-inhibitory concentration (IC50) in data set [2] amounted to 0.081 µM; in data set [1] it was 0.0111 µM; in data set [4], 0.065 µM. This compound returned a half-inhibitory concentration (IC50) at 72 h in data set [3] of 40.5 µM.

With `CC(C)n1cnc(-c2ccc(F)cc2)c1-c1nc(C(=O)Nc2ccc(N3CC[N+](C)([O-])CC3)cc2)c[nH]1`, the IC50 in data set [2] was 0.115 µM; in [1], 0.0343 µM; in [4], over 10 µM. In data set [3], this compound displayed a 50% inhibitory concentration (IC50) at 72 h of over 100 µM.

For orientation: Papp means a coefficient for how fast a substance crosses the barrier. As to `CC(C)n1cnc(-c2ccc(F)cc2)c1-c1nc(C(=O)Nc2ccc(CCC(=O)O)cc2)c[nH]1`, the IC50 in [2] is over 10 µM; in data set [1], 0.0463 µM; in [4], over 10 µM. In [3], this compound showed a 50% inhibitory concentration (IC50) at 72 h of over 100 µM. Besides, in [8], the Papp is 0.7 nm/s.

Consider `CC(C)n1cnc(-c2ccc(F)cc2)c1-c1nc(C(=O)Nc2ccc(N3CCN(C)CC3)cc2)c[nH]1`, for which the values for the 50% inhibitory concentration (IC50) in data set [9] and in data set [11] were 8.4 µM and 0.25 µM, respectively. Also, the Activity in data set [10] is given as -0.671%; in [12], 6.065%.

As for `CC(C)n1cnc(-c2ccc(F)cc2)c1-c1nc(C(=O)Nc2ccc(N3CCN(CC(F)(F)F)CC3)cc2)c[nH]1`, the IC50 in data set [2] stood at 0.519 µM; in data set [1] it was 0.042 µM; in data set [4] it was 0.125 µM. Besides, in [3], the IC50 at 72 h was over 100 µM.

For the compound `CC(C)n1cnc(-c2ccc(F)cc2)c1-c1cccc(C(=O)Nc2ccc(N3CCN(CCO)CC3)cc2)n1`, the solubility (kinetic) at 24 h in data set [5] is 5.3 µM (≈ 2.8 µg/mL). The values for the microsomal CLint in data set [6] and in data set [7] were 69.5 µL/min/mg and 141 µL/min/mg, respectively. Also, the half-maximal inhibitory concentration (IC50) in data set [1] was found to be 0.0052 µM.

`CC(C)n1cnc(-c2ccc(Cl)cc2)c1-c1nc(C(=O)Nc2ccc(N3CCN(C)CC3)cc2)c[nH]1` gave a half-inhibitory concentration (IC50) in [1] of 0.0713 µM.

For `CC(C)n1cnc(-c2ccc(F)cc2)c1-c1nc(C(=O)Nc2ccc(N3CCN(S(N)(=O)=O)CC3)cc2)c[nH]1`, in data set [5], the solubility (kinetic) at 24 h was under 2 µM. Besides, the IC50 in data set [1] worked out at 0.0106 µM.

As to `CC(C)n1cnc(-c2ccc(F)cc2)c1-c1nc(C(=O)Nc2ccc(N3CC4CCC(C3)N4C)cc2)c[nH]1`, the 50% inhibitory concentration (IC50) amounted to 0.042 µM in [2], 0.004 µM in data set [1] and 0.077 µM in data set [4]. Further, the IC50 at 72 h in data set [3] was 22.6 µM.

In the case of `CC(C)n1cnc(-c2ccc(F)cc2)c1-c1cccc(C(=O)Nc2ccc(CCO)cc2)n1`, in data set [5], the kinetic solubility at 24 h is under 2 µM. The microsomal CLint in [6] is 124 µL/min/mg; in data set [7], 161 µL/min/mg. In [1], this compound gave a 50% inhibitory concentration (IC50) of 0.0057 µM.

On to `CC(C)n1cnc(-c2ccc(F)cc2)c1-c1nc(C(=O)Nc2ccc(N3CCN(C)C(=O)C3)cc2)c[nH]1`, for which the results for the half-inhibitory concentration (IC50) in [2], in data set [1] and in data set [4] were 0.898 µM, 0.047 µM and 0.713 µM, respectively. Besides, the IC50 at 72 h in [3] was over 100 µM.

In [1], `CC(C)n1cnc(-c2ccc(C(F)(F)F)cc2)c1-c1nc(C(=O)Nc2ccc(N3CCN(C)CC3)cc2)c[nH]1` registered a 50% inhibitory concentration (IC50) of over 10 µM.

On to `CC1CN(c2ccc(NC(=O)c3c[nH]c(-c4c(-c5ccc(F)cc5)ncn4C(C)C)n3)cc2)CC(C)N1C` (stereo not given), for which the results for the IC50 in data set [2], in data set [1] and in data set [4] were 0.071 µM, 0.018 µM and 0.071 µM, respectively. The half-maximal inhibitory concentration (IC50) at 72 h in [3] amounted to 12.3 µM.

As for `CC(C)n1cnc(-c2ccc(F)cc2)c1-c1cccc(C(=O)Nc2ccc(CCC(=O)O)cc2)n1`, the kinetic solubility at 24 h in data set [5] was under 2 µM. In addition, the microsomal CLint in [6] and in [7] was under 9.6 µL/min/mg in each case. Besides, the midpoint of inhibition in data set [1], the IC50, lay at 0.0057 µM.

`CC(C)n1cnc(-c2ccc(F)cc2)c1-c1cccc(C(=O)Nc2ccc(N3CCN(C)CC3)cc2)n1` displayed a kinetic solubility at 24 h in data set [5] of 105 µM (≈ 52.4 µg/mL). Further, the results for the microsomal CLint in data set [6] and in data set [7] were 122 µL/min/mg and 119 µL/min/mg, respectively. In addition, the IC50 in [1] stood at 0.0059 µM.

With `CC(C)n1cnc(-c2ccc(F)cc2)c1-c1nc(C(=O)Nc2ccc(C(=O)O)cc2)c[nH]1`, the IC50 in data set [2] was over 10 µM; in [1], 0.149 µM; in data set [4] it was over 10 µM. Moreover, the IC50 at 72 h in data set [3] was over 100 µM. Moreover, the Papp in [8] was 0.7 nm/s.

As to `CC(C)n1cnc(-c2ccc(F)cc2)c1-c1ccc(C(=O)Nc2ccc(N3CCN(C)CC3)cc2)o1`, the solubility (kinetic) at 24 h in data set [5] amounted to 40 µM (≈ 19.5 µg/mL). In addition, the microsomal CLint in data set [6] and in data set [7] was over 150 µL/min/mg each time. Besides, the IC50 in [1] is 0.0105 µM.

With `Cn1ccc2cc(-c3ccc4c(c3)SCCN(Cc3ccc(F)cc3)C4=O)cnc21`, in [13], the IC50 came out at 0.026 µM. In other words, the double-digit nanomolar range.

Take `CC(C)n1cnc(-c2ccc(F)cc2)c1-c1nc(C(=O)Nc2ccc(CCCCC(=O)O)cc2)c[nH]1`: the figures for the IC50 in [2], in data set [1] and in [4] were over 10 µM, 0.051 µM and over 10 µM, respectively. This compound also had a 50% inhibitory concentration (IC50) at 72 h in data set [3] of over 100 µM. In addition, the Papp in data set [8] was 0.7 nm/s.
